# Laboratory results: ChEMBL document CHEMBL1201862, “PubChem BioAssay data set” (2004)
# Active and inactive are the calls of the source.
# What was measured:
# [1] = tested on: Saccharomyces cerevisiae; experiment: NALP1 inhibitor project selectivity study, Caspase-1/ASC signal blockade IC50 in S. cerevisiae (AID 488863); assay type: functional, organism-based
# [2] = target: T1, Calpain-2 catalytic subunit (Sus scrofa, UniProt P43367); experiment: pig calpain II inhibitor potency, dose response, biochemical, fluorogenic peptide substrate (AID 1420); assay type: functional
# T1 sequence (P43367 whole entry): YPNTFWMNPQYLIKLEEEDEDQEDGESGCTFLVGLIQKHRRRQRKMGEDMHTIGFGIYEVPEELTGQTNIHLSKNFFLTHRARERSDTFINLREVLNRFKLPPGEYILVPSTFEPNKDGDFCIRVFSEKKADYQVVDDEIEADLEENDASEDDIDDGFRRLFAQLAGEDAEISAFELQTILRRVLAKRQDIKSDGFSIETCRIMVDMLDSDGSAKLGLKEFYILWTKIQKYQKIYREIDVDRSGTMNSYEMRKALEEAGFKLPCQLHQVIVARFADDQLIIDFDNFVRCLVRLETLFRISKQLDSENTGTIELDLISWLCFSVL
# [3] = target: NACHT, LRR and PYD domains-containing protein 1 (Homo sapiens, UniProt Q9C000); experiment: NALP1 inhibitors in yeast, dose response, luminescent (AID 488860); assay type: functional
# Sequence of NACHT, LRR and PYD domains-containing protein 1 (Q9C000 1-1212 limits assumed): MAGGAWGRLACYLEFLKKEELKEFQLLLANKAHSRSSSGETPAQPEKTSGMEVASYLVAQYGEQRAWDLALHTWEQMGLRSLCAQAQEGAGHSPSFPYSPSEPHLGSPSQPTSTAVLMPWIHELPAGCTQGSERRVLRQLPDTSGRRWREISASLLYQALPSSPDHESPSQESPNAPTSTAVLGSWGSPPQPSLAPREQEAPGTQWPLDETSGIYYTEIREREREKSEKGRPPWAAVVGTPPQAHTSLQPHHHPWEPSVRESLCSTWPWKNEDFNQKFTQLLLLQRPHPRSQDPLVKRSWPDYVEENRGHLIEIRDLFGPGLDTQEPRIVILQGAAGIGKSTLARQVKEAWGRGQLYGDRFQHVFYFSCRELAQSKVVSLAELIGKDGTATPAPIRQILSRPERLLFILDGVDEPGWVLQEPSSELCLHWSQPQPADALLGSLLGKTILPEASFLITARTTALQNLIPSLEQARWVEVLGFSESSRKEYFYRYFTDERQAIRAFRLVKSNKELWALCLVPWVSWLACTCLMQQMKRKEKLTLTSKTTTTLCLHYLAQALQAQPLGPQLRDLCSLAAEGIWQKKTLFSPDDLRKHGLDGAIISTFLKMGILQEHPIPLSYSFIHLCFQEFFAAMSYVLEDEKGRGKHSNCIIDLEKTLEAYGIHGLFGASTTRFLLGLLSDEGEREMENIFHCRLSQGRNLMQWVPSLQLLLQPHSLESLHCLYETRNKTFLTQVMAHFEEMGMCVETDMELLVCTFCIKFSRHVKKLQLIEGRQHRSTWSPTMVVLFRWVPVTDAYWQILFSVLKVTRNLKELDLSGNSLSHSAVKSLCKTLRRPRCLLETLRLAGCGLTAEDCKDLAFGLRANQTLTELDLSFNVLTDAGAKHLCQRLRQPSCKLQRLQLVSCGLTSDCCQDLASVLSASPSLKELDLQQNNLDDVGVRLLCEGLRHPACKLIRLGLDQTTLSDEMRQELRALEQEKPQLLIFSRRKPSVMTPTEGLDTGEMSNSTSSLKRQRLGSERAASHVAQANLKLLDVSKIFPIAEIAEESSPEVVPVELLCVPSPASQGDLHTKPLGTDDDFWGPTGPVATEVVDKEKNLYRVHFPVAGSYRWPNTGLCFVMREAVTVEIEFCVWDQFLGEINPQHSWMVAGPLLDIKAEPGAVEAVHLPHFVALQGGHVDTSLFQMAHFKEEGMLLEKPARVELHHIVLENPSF
# Sequence of NACHT, LRR and PYD domains-containing protein 1 (Q9C000 1213-1473 limits assumed): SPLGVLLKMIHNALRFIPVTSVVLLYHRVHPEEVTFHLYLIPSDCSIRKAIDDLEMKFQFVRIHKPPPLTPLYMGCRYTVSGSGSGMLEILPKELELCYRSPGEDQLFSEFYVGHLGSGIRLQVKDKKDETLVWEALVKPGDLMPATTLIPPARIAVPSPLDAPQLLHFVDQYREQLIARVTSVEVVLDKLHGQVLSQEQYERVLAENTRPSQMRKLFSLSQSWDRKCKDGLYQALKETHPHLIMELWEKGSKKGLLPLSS
# [4] = target: NACHT, LRR and PYD domains-containing protein 3 (Homo sapiens, UniProt Q96P20); experiment: NALP3 inhibitors in yeast, dose response, luminescent (AID 488799); assay type: functional
# [5] = Luminescence Cell-Based Dose Response HTS to Identify Activators of Luciferase Translation or Activity in H4 […] Cells. [Related pubchem assays: 1829 (Project Summary), 1814 (Primary HTS)]; assay type: functional
# [6] = Luminescence Cell-Based Dose Confirmation HTS to Identify Activators of 5'UTR Stem-Loop Driven Alpha-Synuclein mRNA Translation in H4 Neuroglioblastoma Cells. [Related pubchem assays: 1829 (Project Summary), 1814 (Primary HTS)]; assay type: functional
# [7] = tested on: H4; experiment: Luminescence Cell-Based Dose Response HTS to Identify Activators of 5'UTR Stem-Loop Driven Prion Protein mRNA Translation in H4 Neuroglioblastoma Cells. [Related pubchem assays: 1829 (Project Summary), 1814 (Primary HTS)]; assay type: functional; settings: Homo sapiens
# [8] = target: CAAX prenyl protease 2 (Saccharomyces cerevisiae S288c, UniProt Q03530); assay type: biochemical
# Sequence of CAAX prenyl protease 2 (Q03530 whole entry): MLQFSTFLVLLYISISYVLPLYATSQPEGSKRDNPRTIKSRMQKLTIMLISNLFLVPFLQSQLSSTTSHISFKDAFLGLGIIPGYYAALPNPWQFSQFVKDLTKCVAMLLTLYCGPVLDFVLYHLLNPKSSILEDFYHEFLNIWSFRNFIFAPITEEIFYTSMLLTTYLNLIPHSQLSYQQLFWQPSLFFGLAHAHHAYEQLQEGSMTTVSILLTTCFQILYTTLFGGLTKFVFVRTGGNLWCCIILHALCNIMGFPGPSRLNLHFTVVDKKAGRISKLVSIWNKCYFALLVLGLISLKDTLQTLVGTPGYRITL
# [9] = target: Trypsin (Sus scrofa, UniProt P00761); experiment: porcine trypsin inhibitors, dose response, selectivity assay for Rce1 protease inhibitor project, biochemical, quenched peptide fluorescence, cherry-pick (AID 488789)
# Sequence of Trypsin (P00761 whole entry): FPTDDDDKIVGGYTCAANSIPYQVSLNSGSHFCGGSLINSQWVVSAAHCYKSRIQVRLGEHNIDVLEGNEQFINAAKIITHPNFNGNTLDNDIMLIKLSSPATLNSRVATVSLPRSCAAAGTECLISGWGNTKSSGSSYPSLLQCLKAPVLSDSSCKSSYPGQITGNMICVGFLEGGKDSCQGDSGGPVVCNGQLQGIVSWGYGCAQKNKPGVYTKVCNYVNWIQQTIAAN
# [10] = target: T2, DNA dC->dU-editing enzyme APOBEC-3A (Homo sapiens, UniProt P31941); experiment: APOBEC3A DNA deaminase inhibitors, dose response, biochemical (AID 504722); assay type: functional
# T2 sequence (P31941 whole entry): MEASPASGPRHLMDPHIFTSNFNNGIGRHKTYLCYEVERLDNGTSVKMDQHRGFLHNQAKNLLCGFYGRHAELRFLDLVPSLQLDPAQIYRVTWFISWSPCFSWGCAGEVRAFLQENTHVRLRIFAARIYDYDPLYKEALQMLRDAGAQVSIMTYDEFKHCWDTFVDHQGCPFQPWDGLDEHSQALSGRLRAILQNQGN
# [11] = target: T3, DNA dC->dU-editing enzyme APOBEC-3G (Homo sapiens, UniProt Q9HC16); experiment: Dose Response confirmation of small molecule APOBEC3G DNA Deaminase Inhibitors via a fluorescence-based single-stranded DNA deaminase assay. [Related pubchem assays (depositor defined):AID493012, AID493028]; assay type: functional
# T3 sequence (Q9HC16 whole entry): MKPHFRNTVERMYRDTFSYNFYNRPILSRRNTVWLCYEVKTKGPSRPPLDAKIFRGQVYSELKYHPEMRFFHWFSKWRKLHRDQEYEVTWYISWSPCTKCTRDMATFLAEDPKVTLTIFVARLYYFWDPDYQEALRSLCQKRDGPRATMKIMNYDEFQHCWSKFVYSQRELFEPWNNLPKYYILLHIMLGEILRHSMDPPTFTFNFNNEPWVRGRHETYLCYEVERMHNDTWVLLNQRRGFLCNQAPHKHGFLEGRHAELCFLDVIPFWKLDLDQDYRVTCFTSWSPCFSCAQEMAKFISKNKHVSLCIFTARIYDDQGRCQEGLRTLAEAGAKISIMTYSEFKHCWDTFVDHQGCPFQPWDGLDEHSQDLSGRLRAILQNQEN
# [12] = target: T4, Coagulation factor XII (Homo sapiens, UniProt P00748); experiment: FXIIa inhibitor potency, concentration-response, biochemical (AID 716); assay type: functional
# T4 sequence (P00748 whole entry): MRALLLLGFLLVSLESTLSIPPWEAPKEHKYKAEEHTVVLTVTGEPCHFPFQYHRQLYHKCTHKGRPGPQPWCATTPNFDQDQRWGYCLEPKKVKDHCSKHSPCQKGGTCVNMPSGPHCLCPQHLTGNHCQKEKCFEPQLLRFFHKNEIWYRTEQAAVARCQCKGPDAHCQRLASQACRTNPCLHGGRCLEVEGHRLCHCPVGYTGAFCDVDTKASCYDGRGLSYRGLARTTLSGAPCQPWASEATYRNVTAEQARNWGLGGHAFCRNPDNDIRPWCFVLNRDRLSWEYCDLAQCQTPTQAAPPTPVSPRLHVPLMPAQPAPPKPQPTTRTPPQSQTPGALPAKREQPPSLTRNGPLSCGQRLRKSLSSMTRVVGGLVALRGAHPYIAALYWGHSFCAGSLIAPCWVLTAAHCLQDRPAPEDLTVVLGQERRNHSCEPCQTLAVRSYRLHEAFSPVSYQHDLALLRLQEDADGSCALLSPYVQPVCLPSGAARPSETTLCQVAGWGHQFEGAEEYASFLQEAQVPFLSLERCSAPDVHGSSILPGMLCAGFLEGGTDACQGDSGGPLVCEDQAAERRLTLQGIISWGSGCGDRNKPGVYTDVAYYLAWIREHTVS
# [13] = target: Cytochrome P450 2D6 (Homo sapiens, UniProt P10635);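 note: CYP2D6 member of a cytochrome P450 panel assay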
# Sequence of Cytochrome P450 2D6 (P10635 whole entry): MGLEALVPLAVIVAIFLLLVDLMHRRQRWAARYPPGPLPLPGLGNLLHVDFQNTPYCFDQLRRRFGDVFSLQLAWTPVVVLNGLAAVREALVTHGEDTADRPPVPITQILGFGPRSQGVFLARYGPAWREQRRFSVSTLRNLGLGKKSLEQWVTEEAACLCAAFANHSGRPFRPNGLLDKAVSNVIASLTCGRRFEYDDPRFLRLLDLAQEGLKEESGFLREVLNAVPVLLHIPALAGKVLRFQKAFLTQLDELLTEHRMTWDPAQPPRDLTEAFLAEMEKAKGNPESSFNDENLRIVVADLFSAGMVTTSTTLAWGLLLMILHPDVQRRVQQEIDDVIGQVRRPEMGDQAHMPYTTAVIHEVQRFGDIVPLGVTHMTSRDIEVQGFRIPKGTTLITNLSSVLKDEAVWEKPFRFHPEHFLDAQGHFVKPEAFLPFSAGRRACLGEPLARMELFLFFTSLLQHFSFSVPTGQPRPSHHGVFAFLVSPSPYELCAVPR
# [14] = target: Cytochrome P450 2C19 (Homo sapiens, UniProt P33261); experiment: Cytochrome panel assay with activity outcomes. Panel member name: p450-cyp2c19 Compounds with AC50 equal or less than 10 uM are considered active; assay type: functional; settings: read-out: AC50
# [15] = target: Intestinal-type alkaline phosphatase (Homo sapiens, UniProt P09923); experiment: Dose Response confirmation of uHTS hits from a small molecule inhibitors of human intestinal alkaline phosphatase via a luminescent assay. [Related pubchem assays (depositor defined):AID2544, AID2574]; assay type: functional
# Sequence of Intestinal-type alkaline phosphatase (P09923 whole entry): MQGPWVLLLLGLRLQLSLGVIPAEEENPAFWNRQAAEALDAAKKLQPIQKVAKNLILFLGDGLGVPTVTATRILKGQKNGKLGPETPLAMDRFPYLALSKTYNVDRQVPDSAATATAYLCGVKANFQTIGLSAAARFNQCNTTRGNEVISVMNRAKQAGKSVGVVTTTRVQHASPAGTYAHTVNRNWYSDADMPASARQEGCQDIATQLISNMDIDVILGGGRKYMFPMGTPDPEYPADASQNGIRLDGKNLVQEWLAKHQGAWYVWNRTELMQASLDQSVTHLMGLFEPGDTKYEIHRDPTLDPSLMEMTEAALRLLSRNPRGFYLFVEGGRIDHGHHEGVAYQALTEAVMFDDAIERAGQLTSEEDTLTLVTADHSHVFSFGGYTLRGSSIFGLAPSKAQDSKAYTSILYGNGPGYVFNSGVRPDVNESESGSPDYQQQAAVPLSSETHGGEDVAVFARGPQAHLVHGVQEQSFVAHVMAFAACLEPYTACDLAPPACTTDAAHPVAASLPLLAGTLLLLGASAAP
# [16] = target: Cytochrome P450 2C9 (Homo sapiens, UniProt P11712)
# Sequence of Cytochrome P450 2C9 (P11712 whole entry): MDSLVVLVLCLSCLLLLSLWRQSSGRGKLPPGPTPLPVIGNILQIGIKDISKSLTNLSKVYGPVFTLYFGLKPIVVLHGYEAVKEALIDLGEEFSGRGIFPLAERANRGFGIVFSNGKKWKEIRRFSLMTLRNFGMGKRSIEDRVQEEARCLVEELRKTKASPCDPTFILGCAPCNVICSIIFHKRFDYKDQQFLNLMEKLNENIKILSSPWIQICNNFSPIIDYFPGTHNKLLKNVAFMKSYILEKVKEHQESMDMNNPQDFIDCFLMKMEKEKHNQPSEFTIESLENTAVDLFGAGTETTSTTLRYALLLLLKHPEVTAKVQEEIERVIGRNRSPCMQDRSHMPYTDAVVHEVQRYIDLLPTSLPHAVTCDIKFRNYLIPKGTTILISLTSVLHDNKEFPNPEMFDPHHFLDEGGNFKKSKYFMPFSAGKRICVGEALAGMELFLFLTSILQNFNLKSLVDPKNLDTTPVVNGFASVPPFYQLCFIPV
# [17] = target: Hexokinase-1 (Homo sapiens, UniProt P19367); experiment: hexokinase 1 activators, dose response, selectivity assay for HKDC1 activator project, biochemical (AID 504762); assay type: functional
# [18] = target: T5, Hexokinase HKDC1 (Homo sapiens, UniProt Q2TB90); experiment: HKDC1 hexokinase activators, dose response, biochemical, W721R variant (AID 504730); assay type: functional
# T5 sequence (Q2TB90 whole entry): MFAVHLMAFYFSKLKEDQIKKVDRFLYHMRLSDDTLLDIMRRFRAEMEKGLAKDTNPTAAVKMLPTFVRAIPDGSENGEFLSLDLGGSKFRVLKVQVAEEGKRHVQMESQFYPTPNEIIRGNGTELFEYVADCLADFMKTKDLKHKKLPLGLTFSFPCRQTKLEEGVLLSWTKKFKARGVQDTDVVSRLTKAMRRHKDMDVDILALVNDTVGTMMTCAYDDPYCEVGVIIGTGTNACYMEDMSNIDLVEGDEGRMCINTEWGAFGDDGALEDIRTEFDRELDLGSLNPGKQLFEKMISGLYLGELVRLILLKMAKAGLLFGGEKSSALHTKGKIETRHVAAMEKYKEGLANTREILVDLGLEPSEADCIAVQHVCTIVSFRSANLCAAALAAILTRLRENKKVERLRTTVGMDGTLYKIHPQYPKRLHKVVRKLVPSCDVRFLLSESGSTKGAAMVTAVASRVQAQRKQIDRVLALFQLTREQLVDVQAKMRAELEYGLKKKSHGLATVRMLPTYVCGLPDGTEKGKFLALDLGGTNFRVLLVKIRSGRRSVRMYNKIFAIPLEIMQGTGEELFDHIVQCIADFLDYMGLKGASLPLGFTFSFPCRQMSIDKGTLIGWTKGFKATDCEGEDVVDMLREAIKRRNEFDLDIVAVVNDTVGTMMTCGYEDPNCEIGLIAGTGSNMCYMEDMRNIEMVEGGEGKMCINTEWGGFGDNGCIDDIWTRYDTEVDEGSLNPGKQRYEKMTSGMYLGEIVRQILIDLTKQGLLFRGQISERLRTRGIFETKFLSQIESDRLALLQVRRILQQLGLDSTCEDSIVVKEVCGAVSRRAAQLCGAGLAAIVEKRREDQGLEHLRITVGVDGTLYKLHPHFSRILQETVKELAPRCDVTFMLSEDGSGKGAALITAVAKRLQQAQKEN
# [19] = target: DNA damage-inducible transcript 3 protein (Mus musculus, UniProt P35639); assay type: functional, Cricetulus griseus
# Sequence of DNA damage-inducible transcript 3 protein (P35639 whole entry): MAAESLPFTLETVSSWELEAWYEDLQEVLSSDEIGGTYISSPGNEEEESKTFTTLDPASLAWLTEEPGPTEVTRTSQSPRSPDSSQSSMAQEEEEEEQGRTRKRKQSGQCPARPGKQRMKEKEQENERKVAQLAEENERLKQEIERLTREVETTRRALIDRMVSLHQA
# [20] = Luminescence Cell-Based Dose Retest to Confirm Inhibitors of Cancer Stem Cells. [Related pubchem assays (depositor defined):AID2717, AID2721]; assay type: functional; settings: Homo sapiens
# [21] = tested on: T-cell; experiment: inhibitors of CD8+ T cell–vesicle binding, dose response, mouse 2C CD8+ T cells, flow cytometry (AID 485284); assay type: functional
# [22] = cytotoxicity in NIH/3T3 mouse fibroblasts, dose response, cytotoxicity control, cell-based, mouse embryonic fibroblasts, dry powder, set 2 (AID 493247); assay type: functional; settings: Fibroblast
# [23] = target: G-protein coupled receptor 55 (Homo sapiens, UniProt Q9Y2T6); experiment: GPR55 agonists via beta-arrestin recruitment, primary screen, imaging, U2OS cells, beta-arrestin-GFP redistribution (AID 1961); assay type: functional
# [24] = target: Hexokinase (Trypanosoma brucei, UniProt Q38C41); experiment: Confirmation assay for inhibitors of Trypanosoma brucei hexokinase 1-Analogue-first series. [Related pubchem assays (depositor defined):AID1430, AID1632, AID2516, AID2560, AID2579, AID2600, AID449725, AID492951]; assay type: functional
# Sequence of Hexokinase (Q38C41 whole entry): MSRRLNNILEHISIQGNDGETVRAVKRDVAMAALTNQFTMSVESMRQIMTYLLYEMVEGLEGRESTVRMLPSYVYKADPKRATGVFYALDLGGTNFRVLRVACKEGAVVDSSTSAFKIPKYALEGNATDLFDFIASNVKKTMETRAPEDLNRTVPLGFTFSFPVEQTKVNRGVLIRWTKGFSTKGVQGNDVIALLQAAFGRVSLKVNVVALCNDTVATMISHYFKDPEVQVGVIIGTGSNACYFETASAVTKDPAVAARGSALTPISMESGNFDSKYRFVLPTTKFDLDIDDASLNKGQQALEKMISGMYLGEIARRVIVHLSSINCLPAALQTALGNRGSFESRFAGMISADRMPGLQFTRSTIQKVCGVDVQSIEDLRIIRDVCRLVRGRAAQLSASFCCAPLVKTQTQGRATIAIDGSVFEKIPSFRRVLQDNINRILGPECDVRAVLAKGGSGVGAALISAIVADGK
# [25] = target: Voltage-dependent T-type calcium channel subunit alpha-1H (Homo sapiens, UniProt O95180); experiment: Cav3.2 T-type channel inhibitors, cell-based, synthetic library set 1, calcium flux (AID 493022); assay type: functional
# [26] = target: T2, DNA dC->dU-editing enzyme APOBEC-3A; experiment: Dose Response confirmation of small molecule APOBEC3A DNA Deaminase Inhibitors via a fluorescence-based single-stranded DNA deaminase assay. [Related pubchem assays (depositor defined):AID493011, AID493024]; assay type: functional
# [27] = target: T3, DNA dC->dU-editing enzyme APOBEC-3G; assay type: functional
smiles,measurement,setting,value
O=S(=O)(Nc1ccc(-n2cccc2)cc1)c1ccc(Cl)cc1Cl,IC50,[1],56.8 µM (active)
same,IC50,[2],9.85 µM (not active)
same,IC50,[3],18.3 µM (active)
COc1ccc(NC(=O)C#Cc2ccccc2)cc1,IC50,[4],8.01 µM (active)
same,EC50,[5],32.6 µM (active)
same,EC50,[6],192 nM (active)
same,EC50,[7],22.1 µM (active)
COc1ccccc1-c1cc(C(F)(F)F)n2ncc(S(=O)(=O)c3ccccc3)c2n1,AC50,[8],75.9 µM (active)
same,AC50,[9],13.1 µM (active)
Sc1nnc(-c2ccc(Cl)cc2)n1CC1CCCO1 (configuration not stated),IC50,[10],> 100 µM (inactive)
same,IC50,[11],6.14 µM (active)
COc1ccccc1-n1c(S)nnc1CNC(=O)COc1ccccc1,IC50,[12],> 50 µM (inactive)
O=c1c2c(-c3cccs3)csc2ncn1-c1ccc(Br)cc1,AC50,[13],3.55 µM (inconclusive)
same,AC50,[14],2.24 µM (inconclusive)
same,IC50,[15],> 100 µM (inactive)
same,AC50,[16],3.98 µM (inconclusive)
Cn1c(=O)c2c(nc(NN/C=C3/C(=O)NC(=S)N(C4CCCCC4)C3=O)n2C)n(C)c1=O,EC50,[17],75.9 µM (inactive)
same,EC50,[18],> 80 µM (inactive)
NC(=O)CC(NC(=O)Cc1cccc2ccccc12)c1ccc(NCc2ccccc2)c([N+](=O)[O-])c1 (configuration not stated),Absolute IC50 (CHOP),[19],10 µM
same,AC50,[20],5.5 µM (active)
COc1ccc2c(c1)C1NC(S)=NC(C)(O2)C1C(=O)Nc1ccc(Cl)cc1 (configuration not stated),EC50,[21],31.3 µM (inactive)
COc1cc2c(cc1OC)CN(C(=O)C1CCCN(Cc3ccccc3)C1)CC2 (configuration not stated),AC50,[22],52.7 µM (active)
CC(C)C[C@@H](COc1ccccc1)N1CCN(CCc2ccccc2)CCC1=O,EC50,[23],2.69 µM (active)
CC(C)(C)c1ccc(C(=O)Nc2cc(Cl)c(Cl)cc2C(=O)O)cc1,IC50,[24],1.36 µM (active)
O=C(COc1ccc(F)cc1)Nc1nnc(-c2ccc(F)cc2)o1,EC50,[25],10 µM (active)
Cc1cc(N/N=C/c2ccc(O)cc2)nc(NS(=O)(=O)c2ccccc2)n1,IC50,[26],21.9 µM (active)
same,IC50,[27],72.6 µM (active)
